Results taken from PMC10033419, “Blocking NS3–NS4B interaction inhibits dengue virus in non-human primates” (Nature, 2023).
pEC50: −log10 of the molar value. Where “and” joins values, the source holds several entries; their conditions need not be identical. Equal entries are not always repeated. Where two headings read alike, the source gives them in different places.

Experiments:
[1] = test system: subgenomic DENV-2/16681 reporter replicon (WT or NS4B mutants); experiment: microbe, parasite or virus in culture; type: cell-based; details: for FC: fold change of EC50 vs WT
DENV-2 RL strain = experiment: Survival study, lethal DENV challenge with 4G2 antibody; type: in vivo, AG129 mice

`COc1cc(N[C@H](C(=O)c2c[nH]c3ccc(OC(F)(F)F)cc23)c2ccc(Cl)cc2OC)cc(S(C)(=O)=O)c1` [JNJ-1802] was tested. Which pEC50 ([1]; Dengue virus, DENV2, NS4B L94F_V91A_T108I replicon SDM210002) did it give?
The pEC50 was 5.62.

What about the pEC50 ([1]; NS4B A222S replicon SDM200008, read-out: EC50) of the same compound?
Its pEC50 is 9.46.

What about the pEC50 ([1]; NS4B F237Y replicon SDM140022, Huh7 transient, listed as 64281802-AAA, read-out: EC50) of the same compound?
The pEC50 was 8.10 and 7.96 and 8.04.

And the pEC50 ([1]; NS4B L94F_V91A_T108I replicon SDM210002, listed as 64281802-AAA)?
Its pEC50 is 5.63 and 5.64.

And the pEC50 ([1]; NS4B V91A replicon SDM140014, Huh7 transient, listed as 64281802-AAA, read-out: EC50)?
The pEC50 was 7.40 and 7.33 and 7.24 and 7.30.

What about the pEC50 ([1]; NS4B V219A replicon SDM200007, listed as 64281802-AAA, read-out: EC50) of the same compound?
Its pEC50 is 9.22 and 9.28 and 9.20 and 9.04 and 9.11.

What about the pEC50 ([1]; WT replicon pFK-sgDVs-R2A-SDM120005, Huh7 transient) of the same compound?
The pEC50 was 9.48.

And the FC ([1]; NS4B A222S, listed as 64281802-AAA)?
The FC was 1.1 and 1.2 and 0.9 and 1.3 and 1.4.

And the FC ([1]; NS4B F237Y, listed as 64281802-AAA)?
Its FC is 46.0 and 32.0 and 23.0.

And the FC ([1]; NS4B L94F_V91A_T108I, listed as 64281802-AAA)?
Its FC is 3872.3 and 4594.9 and 4248.1.

And the FC ([1]; NS4B M183T, listed as 64281802-AAA)?
Its FC is 1.1 and 1.2 and 1.6 and 1.4.

What about the FC ([1]; NS4B S85L, listed as 64281802-AAA) of the same compound?
Its FC is 3.1 and 3.4 and 3.6 and 4.3 and 4.0.

And the FC ([1]; NS4B T195A, listed as 64281802-AAA)?
The FC was 2.9 and 3.2 and 2.4 and 3.7 and 3.5.

What about the FC ([1]; NS4B V91A, listed as 64281802-AAA) of the same compound?
Its FC is 232.0 and 190.0 and 127.0 and 176.0.

What about the FC ([1]; NS4B V219A, listed as 64281802-AAA) of the same compound?
The FC was 1.8 and 1.9 and 1.5 and 1.4.

What about the survival (DENV-2 RL strain; 0.6–20 mg per kg per day, b.i.d., vehicle 0%) of the same compound?
The survival was no less than 80%.

And the “% Survival” value (DENV-2 RL strain; 802R_0.3, BID, d p.i. 0)?
Its value is 100%.

What about the “% Survival” value (DENV-2 RL strain; 802R_0.3, BID, d p.i. 1) of the same compound?
Its value is 100%.

And the “% Survival” value (DENV-2 RL strain; 802R_0.3, BID, d p.i. 4)?
Its value is 100%.

What about the “% Survival” value (DENV-2 RL strain; 802R_0.3, BID, d p.i. 5) of the same compound?
The value was 100%.

And the “% Survival” value (DENV-2 RL strain; 802R_0.3, BID, d p.i. 6)?
Its value is 100%.

And the “% Survival” value (DENV-2 RL strain; 802R_0.3, BID, d p.i. 7)?
Its value is 100%.

And the “% Survival” value (DENV-2 RL strain; 802R_0.3, BID, d p.i. 8)?
The value was 100%.

And the “% Survival” value (DENV-2 RL strain; 802R_0.3, BID, d p.i. 9)?
The value was 100%.

What about the “% Survival” value (DENV-2 RL strain; 802R_0.3, BID, d p.i. 10) of the same compound?
Its value is 100%.

And the “% Survival” value (DENV-2 RL strain; 802R_0.3, BID, d p.i. 11)?
Its value is 100%.

What about the “% Survival” value (DENV-2 RL strain; 802R_0.3, BID, d p.i. 12) of the same compound?
Its value is 100%.

And the “% Survival” value (DENV-2 RL strain; 802R_0.3, BID, d p.i. 13)?
The value was 100%.

What about the “% Survival” value (DENV-2 RL strain; 802R_0.3, BID, d p.i. 14) of the same compound?
Its value is 100%.

And the “% Survival” value (DENV-2 RL strain; 802R_0.3, BID, d p.i. 15)?
The value was 100%.

And the “% Survival” value (DENV-2 RL strain; 802R_0.3, BID, d p.i. 16)?
Its value is 100%.

What about the “% Survival” value (DENV-2 RL strain; 802R_0.3, BID, d p.i. 17) of the same compound?
Its value is 90%.

And the “% Survival” value (DENV-2 RL strain; 802R_0.3, BID, d p.i. 18)?
Its value is 90%.

What about the “% Survival” value (DENV-2 RL strain; 802R_0.3, BID, d p.i. 19) of the same compound?
The value was 90%.

What about the “% Survival” value (DENV-2 RL strain; 802R_0.3, BID, d p.i. 20) of the same compound?
Its value is 90%.

And the “% Survival” value (DENV-2 RL strain; 802R_0.3, BID, d p.i. 21)?
Its value is 90%.

What about the “% Survival” value (DENV-2 RL strain; 802R_0.3, BID, d p.i. 22) of the same compound?
Its value is 90%.

What about the “% Survival” value (DENV-2 RL strain; 802R_0.3, BID, d p.i. 23) of the same compound?
The value was 90%.

And the “% Survival” value (DENV-2 RL strain; 802R_0.3, BID, d p.i. 24)?
Its value is 90%.

And the “% Survival” value (DENV-2 RL strain; 802R_0.3, BID, d p.i. 25 = end of study)?
Its value is 90%.

What about the “% Survival” value (DENV-2 RL strain; 802R_1, BID, d p.i. 0) of the same compound?
The value was 100%.

And the “% Survival” value (DENV-2 RL strain; 802R_1, BID, d p.i. 1)?
The value was 100%.

And the “% Survival” value (DENV-2 RL strain; 802R_1, BID, d p.i. 2)?
The value was 100%.

What about the “% Survival” value (DENV-2 RL strain; 802R_1, BID, d p.i. 4) of the same compound?
The value was 100%.

What about the “% Survival” value (DENV-2 RL strain; 802R_1, BID, d p.i. 5) of the same compound?
The value was 100%.

And the “% Survival” value (DENV-2 RL strain; 802R_1, BID, d p.i. 6)?
Its value is 100%.

And the “% Survival” value (DENV-2 RL strain; 802R_1, BID, d p.i. 7)?
Its value is 100%.

What about the “% Survival” value (DENV-2 RL strain; 802R_1, BID, d p.i. 8) of the same compound?
Its value is 100%.

And the “% Survival” value (DENV-2 RL strain; 802R_1, BID, d p.i. 9)?
Its value is 100%.

And the “% Survival” value (DENV-2 RL strain; 802R_1, BID, d p.i. 10)?
The value was 100%.

And the “% Survival” value (DENV-2 RL strain; 802R_1, BID, d p.i. 11)?
The value was 100%.

And the “% Survival” value (DENV-2 RL strain; 802R_1, BID, d p.i. 12)?
The value was 100%.

What about the “% Survival” value (DENV-2 RL strain; 802R_1, BID, d p.i. 13) of the same compound?
The value was 100%.

What about the “% Survival” value (DENV-2 RL strain; 802R_1, BID, d p.i. 14) of the same compound?
The value was 100%.

And the “% Survival” value (DENV-2 RL strain; 802R_1, BID, d p.i. 15)?
Its value is 100%.

And the “% Survival” value (DENV-2 RL strain; 802R_1, BID, d p.i. 16)?
Its value is 100%.

And the “% Survival” value (DENV-2 RL strain; 802R_1, BID, d p.i. 17)?
Its value is 100%.

And the “% Survival” value (DENV-2 RL strain; 802R_1, BID, d p.i. 18)?
The value was 100%.

What about the “% Survival” value (DENV-2 RL strain; 802R_1, BID, d p.i. 19) of the same compound?
Its value is 100%.

What about the “% Survival” value (DENV-2 RL strain; 802R_1, BID, d p.i. 20) of the same compound?
The value was 100%.

And the “% Survival” value (DENV-2 RL strain; 802R_1, BID, d p.i. 21)?
Its value is 100%.

What about the “% Survival” value (DENV-2 RL strain; 802R_1, BID, d p.i. 22) of the same compound?
Its value is 100%.

What about the “% Survival” value (DENV-2 RL strain; 802R_1, BID, d p.i. 23) of the same compound?
Its value is 100%.

What about the “% Survival” value (DENV-2 RL strain; 802R_1, BID, d p.i. 24) of the same compound?
The value was 100%.

What about the “% Survival” value (DENV-2 RL strain; 802R_1, BID, d p.i. 25 = end of study) of the same compound?
The value was 100%.

What about the “% Survival” value (DENV-2 RL strain; 802R_3, BID, d p.i. 0) of the same compound?
Its value is 100%.

What about the “% Survival” value (DENV-2 RL strain; 802R_3, BID, d p.i. 1) of the same compound?
The value was 100%.

What about the “% Survival” value (DENV-2 RL strain; 802R_3, BID, d p.i. 2) of the same compound?
The value was 100%.

What about the “% Survival” value (DENV-2 RL strain; 802R_3, BID, d p.i. 4) of the same compound?
Its value is 100%.

And the “% Survival” value (DENV-2 RL strain; 802R_3, BID, d p.i. 5)?
The value was 100%.

And the “% Survival” value (DENV-2 RL strain; 802R_3, BID, d p.i. 6)?
Its value is 100%.

And the “% Survival” value (DENV-2 RL strain; 802R_3, BID, d p.i. 7)?
The value was 100%.

And the “% Survival” value (DENV-2 RL strain; 802R_3, BID, d p.i. 8)?
Its value is 100%.

What about the “% Survival” value (DENV-2 RL strain; 802R_3, BID, d p.i. 9) of the same compound?
Its value is 100%.

And the “% Survival” value (DENV-2 RL strain; 802R_3, BID, d p.i. 10)?
The value was 100%.

And the “% Survival” value (DENV-2 RL strain; 802R_3, BID, d p.i. 11)?
The value was 100%.

And the “% Survival” value (DENV-2 RL strain; 802R_3, BID, d p.i. 12)?
The value was 100%.

What about the “% Survival” value (DENV-2 RL strain; 802R_3, BID, d p.i. 13) of the same compound?
Its value is 100%.

And the “% Survival” value (DENV-2 RL strain; 802R_3, BID, d p.i. 14)?
The value was 100%.

What about the “% Survival” value (DENV-2 RL strain; 802R_3, BID, d p.i. 15) of the same compound?
The value was 100%.

And the “% Survival” value (DENV-2 RL strain; 802R_3, BID, d p.i. 16)?
Its value is 100%.
